Test results: PubChem BioAssay AID330 (DTP/NCI, 2004)
“And” between values parts separate entries of the source, which are not always exact repeats. Equal entries are not always repeated. Inconclusive results and toxic doses are left out. How the source made its calls: active means survival T/C of 150% or more; inactive means T/C below 125% in these data.

Test system: P388 leukemia ip, CD2F1 mice, survival T/C
Experiment: NCI In Vivo Anticancer Drug Screen. Data for tumor model P388 Leukemia (intraperitoneal) in CD2F1 (CDF1) mice
Conditions: endpoint: median survival time, higher = longer survival
How it was run: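 Mice carrying the transplanted tumor received test compound or vehicle. Survival was recorded in each group, and the value is the treated-group measurement divided by that of the vehicle-treated control group.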

[1] = dose: 60.0 mg/kg/injection, schedule: Q01DX005 (ip), vehicle: saline with Tween-80
[2] = dose: 120.0 mg/kg/injection, schedule: Q01DX005 (ip), vehicle: saline with Tween-80
[3] = dose: 240.0 mg/kg/injection, schedule: Q01DX005 (ip), vehicle: saline with Tween-80
[4] = dose: 60.0 mg/kg/injection, schedule: Q01DX005 (ip), vehicle: Klucel (hydroxypropylcellulose) (HPC)
[5] = dose: 120.0 mg/kg/injection, schedule: Q01DX005 (ip), vehicle: Klucel (hydroxypropylcellulose) (HPC)
[6] = dose: 240.0 mg/kg/injection, schedule: Q01DX005 (ip), vehicle: Klucel (hydroxypropylcellulose) (HPC)
[7] = dose: 50.0 mg/kg/injection, schedule: Q01DX009 (ip), vehicle: saline
[8] = dose: 50.0 mg/kg/injection, schedule: Q01DX005 (ip), vehicle: saline with Tween-80
[9] = dose: 100.0 mg/kg/injection, schedule: Q01DX005 (ip), vehicle: saline with Tween-80
[10] = dose: 200.0 mg/kg/injection, schedule: Q01DX005 (ip), vehicle: saline with Tween-80
[11] = dose: 100.0 mg/kg/injection, schedule: Q04DX002 (ip), vehicle: saline with Tween-80
[12] = dose: 200.0 mg/kg/injection, schedule: Q04DX002 (ip), vehicle: saline with Tween-80
[13] = dose: 400.0 mg/kg/injection, schedule: Q04DX002 (ip), vehicle: saline with Tween-80

Measured: T/C

COC(=O)NC1CCC(=O)N1Cc1ccccc1 (stereo not given)
inactive: [1] 96 % of control | [2] 94 % of control | [3] 102 % of control

CCN(CC)CCOCCCNc1ccnc2cc(Cl)ccc12
inactive: dose: 50.0 mg/kg/injection, schedule: Q01DX005 (ip), vehicle: saline 100 % of control | dose: 100.0 mg/kg/injection, schedule: Q01DX005 (ip), vehicle: saline 103 % of control

CC(=O)Nc1cscc1NC(C)=O
inactive: dose: 25.0 mg/kg/injection, schedule: Q01DX009 (ip), vehicle: saline with Tween-80 101 % of control | dose: 50.0 mg/kg/injection, schedule: Q01DX009 (ip), vehicle: saline with Tween-80 94 % of control | dose: 100.0 mg/kg/injection, schedule: Q01DX009 (ip), vehicle: saline with Tween-80 100 % of control | dose: 200.0 mg/kg/injection, schedule: Q01DX009 (ip), vehicle: saline with Tween-80 101 % of control

CC(Oc1ccccc1)C(=O)N=c1scc(-c2ccc(Br)cc2)n1-c1cccc2ccccc12 (stereo not given)
inactive: dose: 6.25 mg/kg/injection, schedule: Q01DX009 (ip), vehicle: gum acacia 106 % of control | dose: 12.5 mg/kg/injection, schedule: Q01DX009 (ip), vehicle: gum acacia 106 % of control | dose: 25.0 mg/kg/injection, schedule: Q01DX009 (ip), vehicle: gum acacia 105 % of control | dose: 50.0 mg/kg/injection, schedule: Q01DX009 (ip), vehicle: gum acacia 101 % of control | dose: 100.0 mg/kg/injection, schedule: Q01DX009 (ip), vehicle: gum acacia 92 % of control | dose: 200.0 mg/kg/injection, schedule: Q01DX009 (ip), vehicle: gum acacia 98 % of control

Cc1ccc2nc3ccccc3c(SCCCCCCSc3c4ccccc4nc4ccc(C)cc34)c2c1
inactive: [4] 89 % of control | [1] 107 % of control | [5] 87 % of control | [2] 90 % of control | [6] 87 % of control

Clc1ccc(-c2noc(CN3CCOCC3)n2)cc1
inactive: [7] 102 % of control | dose: 100.0 mg/kg/injection, schedule: Q01DX009 (ip), vehicle: saline 105 % of control | dose: 200.0 mg/kg/injection, schedule: Q01DX009 (ip), vehicle: saline 109 % of control

c1ccc2c(c1)nnc1ccccc12
inactive: dose: 50.0 mg/kg/injection, schedule: Q01DX005 (ip), vehicle: Klucel + Tween-80 102 % of control | dose: 100.0 mg/kg/injection, schedule: Q01DX005 (ip), vehicle: Klucel + Tween-80 96 % of control | dose: 200.0 mg/kg/injection, schedule: Q01DX005 (ip), vehicle: Klucel + Tween-80 102 % of control

CC(=O)OCC1OC(SP(c2ccccc2)c2ccccc2)C(OC(C)=O)C(OC(C)=O)C1OC(C)=O (stereo not given)
inactive: dose: 50.0 mg/kg/injection, schedule: Q01DX009 (ip), vehicle: saline + alcohol 116 % of control | dose: 100.0 mg/kg/injection, schedule: Q01DX009 (ip), vehicle: saline + alcohol 118 % of control | dose: 200.0 mg/kg/injection, schedule: Q01DX009 (ip), vehicle: saline + alcohol 108 % of control

O=C(COc1ccc(Cl)cc1Cl)NCCN1CCCCC1
inactive: dose: 50.0 mg/kg/injection, schedule: Q01DX009 (ip), vehicle: Klucel (hydroxypropylcellulose) (HPC) 107 % of control | dose: 100.0 mg/kg/injection, schedule: Q01DX009 (ip), vehicle: Klucel (hydroxypropylcellulose) (HPC) 100 % of control | dose: 200.0 mg/kg/injection, schedule: Q01DX009 (ip), vehicle: Klucel (hydroxypropylcellulose) (HPC) 100 % of control

COC(=O)c1nc(=S)[nH]c(C(=O)OC)c1C(=O)c1ccc(C)cc1
inactive: [1] 106 % of control | [2] 100 % of control | [3] 100 % of control

O=C(NCCCCCNC(=O)C12CC3CC(CC(C3)C1)C2)C12CC3CC(CC(C3)C1)C2
inactive: dose: 50.0 mg/kg/injection, schedule: Q01DX005 (ip), vehicle: Klucel (hydroxypropylcellulose) (HPC) 90 % of control | [8] 102 % of control | dose: 100.0 mg/kg/injection, schedule: Q01DX005 (ip), vehicle: Klucel (hydroxypropylcellulose) (HPC) 89 % of control | [9] 105 % of control | [10] 95 % of control

C[n+]1c(SCC(=O)O)sc2ccccc21
inactive: dose: 12.5 mg/kg/injection, schedule: Q01DX009 (ip), vehicle: saline 99 % of control | dose: 25.0 mg/kg/injection, schedule: Q01DX009 (ip), vehicle: saline 104 % of control | [7] 108 % of control and 122 % of control

COc1cc(C)nc2ccc(Cc3ccc4nc(C)cc(OC)c4c3)cc12
inactive: dose: 25.0 mg/kg/injection, schedule: Q04DX003 (ip), vehicle: saline with Tween-80 94 % of control | dose: 50.0 mg/kg/injection, schedule: Q04DX003 (ip), vehicle: saline with Tween-80 91 % of control

Cc1nc2c([N+](=O)[O-])cc(C(=O)O)cc2[nH]1
inactive: dose: 60.0 mg/kg/injection, schedule: Q01DX005 (ip), vehicle: saline 100 % of control | dose: 120.0 mg/kg/injection, schedule: Q01DX005 (ip), vehicle: saline 97 % of control | dose: 240.0 mg/kg/injection, schedule: Q01DX005 (ip), vehicle: saline 87 % of control

CCC(C)C1NC(=O)C(NC(=O)c2c3nc4c(C(=O)NC5C(=O)NC(C(C)CC)C(=O)N6CCCC6C(=O)N(C)CC(=O)N(C)C(C(C)C)C(=O)OC5C)cc(N)c(C)c4oc-3c(C)c(=O)c2N)C(C)OC(=O)C(C(C)C)N(C)C(=O)CN(C)C(=O)C2CCCN2C1=O (stereo not given)
active: dose: 0.1 mg/kg/injection, schedule: Q01DX009 (ip), vehicle: Klucel (hydroxypropylcellulose) (HPC) 247 % of control | dose: 0.2 mg/kg/injection, schedule: Q01DX009 (ip), vehicle: Klucel (hydroxypropylcellulose) (HPC) 230 % of control | dose: 100.0 micrograms/kg/injection, schedule: Q01DX009 (ip), vehicle: water 152 % of control | dose: 150.0 micrograms/kg/injection, schedule: Q01DX009 (ip), vehicle: water 166 % of control | dose: 225.0 micrograms/kg/injection, schedule: Q01DX009 (ip), vehicle: water 177 % of control

O=NN(Cc1ccc(Cl)cc1)C(C(=O)O)c1ccccc1 (stereo not given)
inactive: dose: 60.0 mg/kg/injection, schedule: Q01DX005 (ip), vehicle: Klucel + Tween-80 103 % of control | dose: 120.0 mg/kg/injection, schedule: Q01DX005 (ip), vehicle: Klucel + Tween-80 103 % of control

Nc1nc(=O)n(CCCSc2ccc([N+](=O)[O-])cc2)cc1-c1ccc(Cl)c(Cl)c1
inactive: [4] 87 % of control | [5] 97 % of control | [6] 88 % of control

COC(c1ccccc1)C1(O)CCN(C)CC1 (stereo not given)
inactive: dose: 72.0 mg/kg/injection, schedule: Q04DX002 (ip), vehicle: Klucel (hydroxypropylcellulose) (HPC) 98 % of control | dose: 144.0 mg/kg/injection, schedule: Q04DX002 (ip), vehicle: Klucel (hydroxypropylcellulose) (HPC) 97 % of control | dose: 288.0 mg/kg/injection, schedule: Q04DX002 (ip), vehicle: Klucel (hydroxypropylcellulose) (HPC) 98 % of control

Cc1ccc(S(=O)(=O)N2C(=O)CCC2=O)cc1
inactive: dose: 100.0 mg/kg/injection, schedule: Q04DX003 (ip), vehicle: Klucel (hydroxypropylcellulose) (HPC) 106 % of control | dose: 100.0 mg/kg/injection, schedule: Q04DX003 (ip), vehicle: saline with Tween-80 105 % of control | dose: 200.0 mg/kg/injection, schedule: Q04DX003 (ip), vehicle: Klucel (hydroxypropylcellulose) (HPC) 120 % of control | dose: 200.0 mg/kg/injection, schedule: Q04DX003 (ip), vehicle: saline with Tween-80 100 % of control | dose: 400.0 mg/kg/injection, schedule: Q04DX003 (ip), vehicle: saline with Tween-80 110 % of control

O=C(N/N=C/c1ccc(O)c(O)c1)c1ccccc1
inactive: [8] 109 % of control | [9] 118 % of control | [10] 119 % of control

COc1cc(C2(C3CC(=O)OC3COC(c3ccccc3)(c3ccccc3)c3ccccc3)SCCCS2)cc(OC)c1OC (stereo not given)
inactive: [11] 88 % of control

Cc1ccc2sc(-c3ccccc3)c(CCl)c(=O)c2c1
inactive: [11] 102 % of control | [12] 108 % of control | [13] 108 % of control

CC1(C)OC2CC(=O)OCC23C1CC(O)C1(C)C3CCC2(C)C(c3ccoc3)OC(=O)C3OC321 (stereo not given)
inactive: dose: 0.75 mg/kg/injection, schedule: Q01DX009 (ip), vehicle: saline + alcohol 99 % of control | dose: 1.5 mg/kg/injection, schedule: Q01DX009 (ip), vehicle: saline + alcohol 99 % of control | dose: 3.0 mg/kg/injection, schedule: Q01DX009 (ip), vehicle: saline + alcohol 97 % of control | dose: 6.0 mg/kg/injection, schedule: Q01DX009 (ip), vehicle: saline + alcohol 97 % of control | [11] 103 % of control and 98 % of control | [12] 101 % of control and 100 % of control | [13] 91 % of control and 92 % of control
